Experimental data published in US20060128643A1, “Compositions containing a combination of a creatine compound and a second agent” (The General Hospital Corporation, priority 1998, published 2006).

How the values were obtained:
MPTP toxicity = conditions: mice; cited from earlier work
[1] = test system: malonate striatal lesions; conditions: cited from earlier work; for protection against lesions in the malonate animal model: in vivo
[2] = cited from earlier work
[3] = test system: MPTP neurotoxicity (dopamine depletion); conditions: animal model of Parkinson's disease; cited from earlier work
[4] = rats receiving dietary 1% cyclocreatine; cited from earlier work
[5] = cited from earlier work; remark: listed apart in the source
[6] = test system: malonate induced striatal lesions; assay: Malonate model of Huntington's disease: striatal lesion volume (Example 1); type: in vivo, rats
Description: Oral administration of creatine and its analogue cyclocreatine were examined to determine their ability to attenuate malonate lesions. Creatine was administered orally to rats in their feed at doses of 0.25-3.0% of the diet. Cyclocreatine was administered at 0.2-1.0%. Controls received unsupplemented otherwise identical diets. The compounds were administered for two weeks prior to the administration of malonate and then for a further week prior to sacrifice. Malonate was dissolved in distilled deionized water and the pH wad adjusted to 7.4 with 0.1 m HCl. Intrastriatal injections of 1.5 ul of malonate containing 3 μmol were made into the striatum at the level of the bregma 2.4 mm lateral to the midline and 4.5 mm ventral to the dura. Animals were sacrificed at 7 days by decapitation, and the brains were quickly removed and placed in ice cold 0.9% saline solution. Brains were sectioned at 2 mm intervals. Slices were then placed posterior side down in 2% 2,3,5-triphenyltetrazolium chloride. Slices were stained in the dark at room temperature for 30 minutes and then removed and placed in 4% paraformaldehyde, pH 7.3. Lesions, noted by pale staining, were evaluated on the posterior surface of each section using a Bioquant 4 system by an experienced histologist blinded to experimental conditions. These measurements have been validated by comparing them to measurements obtained on adjacent Nissl stain sections.

[7] = test system: MPTP induced dopaminergic toxicity; assay: MPTP model for Parkinson's disease: striatal dopamine, DOPAC, HVA; type: in vivo, male Swiss Webster mice
Description: The effect of two representative creatine compounds, creatine and cyclocreatine, were evaluated using this model. Creatine and cyclocreatine were administered in the initial pilot experiment as 1% formulation in the feed of animals, and was administered for three weeks before MPTP treatment. MPTP was administered intraperitoneally at a dose of 15 mg/kg every 2 hours for five injections. The animals then remained on either creatine or cyclocreatine supplemented diets for 1 week before sacrifice. The mice examined were male Swiss Webster mice weighing 30-35 grams obtained from Taconic Farms. Control groups received either normal saline or MPTP hydrochloride alone. MPTP was administered in 0.1 ml of water. The MPTP was obtained from Research Biochemicals. Eight to twelve animals were examined in each group. Following sacrifice the two striata were rapidly dissected and placed in chilled 0.1 M perchloric acid. Tissue was subsequently sonicated, and aliquots were taken for protein quantification using a fluorometer assay. Dopamine, 3,4-dihydroxyphenylacetic acid (DOPAC), and homovanillic acid (HVA) were quantified by HPLC with 16 electrode electrochemical detection. Concentrations of dopamine and metabolites were expressed as nmol/mg protein. The statistical significance of differences was determined by one-way ANOVA followed by Fisher PLSDpost-hoc test to compare group means.
A dose response study was conducted where the creatine dose was 0.25%-3.0% of the diet and cyclocreatine 0.25-1.0% of the diet.

[8] = up to 1% of diet for 2 weeks or for over 4 weeks; cited from earlier work
[9] = feeding animals, e.g. 1% dietary; cited from earlier work
creatine kinase = creatine kinase (Oryctolagus cuniculus, UniProt P00563); conditions: cited from earlier work
Chain of creatine kinase (P00563 whole entry): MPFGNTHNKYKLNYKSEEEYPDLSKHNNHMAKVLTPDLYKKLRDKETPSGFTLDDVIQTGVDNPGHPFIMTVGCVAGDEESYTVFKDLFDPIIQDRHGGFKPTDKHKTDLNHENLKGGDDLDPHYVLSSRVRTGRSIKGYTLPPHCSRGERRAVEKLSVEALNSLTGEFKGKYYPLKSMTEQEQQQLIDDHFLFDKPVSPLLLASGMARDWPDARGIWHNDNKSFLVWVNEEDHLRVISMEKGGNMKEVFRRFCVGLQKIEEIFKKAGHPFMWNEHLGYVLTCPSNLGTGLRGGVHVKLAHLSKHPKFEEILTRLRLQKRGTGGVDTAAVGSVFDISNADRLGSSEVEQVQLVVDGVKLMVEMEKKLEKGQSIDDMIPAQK

[10] = test system: malonate lesions (striatal); assay: Malonate striatal lesions, creatine and nicotinamide (Example 4); type: in vivo, male Sprague-Dawley rats; conditions: creatine 1% in the diet, nicotinamide 0.5% in the drinking water; malonate 3 μmol intrastriatal
Description: Studies of the neuroprotective effects of creatine and nicotinamide were carried out in 250 to 300 g male Sprague-Dawley rats. Creatine was administered orally to rats in their feed at a dose of 1% in the diet. Nicotinamide was administered orally with apple juice at a dose of 0.5% in the drinking water. Rats were treated for one week prior to intracerebral injectior˜s. Animals then remained on the control or supplemented diets for one week prior to being sacrificed. Eleven to 12 animals were examined in each experimental group. NMDA was administered at a doge of 240 nmol in 1 μl. AMPA was administered at a dose of 30 nmol in 1 μl and kainic acid was administered at dose of 5 nmol in 1 μl. Malonate was dissolved in distilled deionized water and the pH was adjusted to 7.4 with HCl. Intrastriatal injections of 3 μmol of malonate in 1.5 μl were made with a 10 μl Hamiiton syringe fitted with a 26 gauge blunt tip needle, into the left striatum at the level of the bregma, 2.4 mm lateral to the midline and 4.5 mm ventral to the dura as described previously [Matthews, R. T et al. J. Neurosci., 18 (1998) 156-163]. […] Lesions noted by pale staining were evaluated on the posterior surface of each section using a Bioquant 4 system, which calculates the volume of the lesions in each section, by an experienced histologist blinded to experimental conditions. […]

[11] = intravenous injection, up to 8 grams/day, patients with cardiac diseases; cited from earlier work
[12] = dose response study, 0.5% of the diet

COC1=C(OC)C(=O)C(C/C=C(\C)CC/C=C(\C)CC/C=C(\C)CC/C=C(\C)CC/C=C(\C)CC/C=C(\C)CC/C=C(\C)CC/C=C(\C)CC/C=C(\C)CCC=C(C)C)=C(C)C1=O [CoQ10, 2,3 dimethoxy-5 methyl-6-decaprenyl benzoquinone]
protection against MPTP toxicity (MPTP toxicity): significantly protect | ATP depletion produced by malonate in vivo [1]: attenuated ATP depletion | protection against lesions in the malonate animal model [1]: dose dependent protection | solubility in chloroform and carbon tetrachloride [2]: very soluble | solubility in water [2]: insoluble in water

CC(C)(C)[N+]([O-])=Cc1ccccc1S(=O)(=O)O [N-tert-a-(2-sulfophenyl) nitrone, reference compound]
protection against dopamine depletion [3]: effective in inhibiting moderate dopamine depletion

NC1=NCCN1CC(=O)O [cyclocreatine, 1-carboxymethyl-2-iminoimidazolidine]
tissue uptake [4]: taken up by muscle, heart and brain | mortality ([5]; diet containing 1% cyclocreatine, in the presence of antibiotics): without significant mortality | growth versus control chicks ([5]; in vivo): grew more slowly | neuroprotection against malonate induced striatal lesions ([6]; 1% in the diet): significant | neuroprotection against malonate induced striatal lesions, dose response ([6]; increasing doses in the diet (creatine 0.25-3%; cyclocreatine 0.2-1.0%)): dose dependent neuroprotective effects | protection against striatal malonate lesions ([6]; oral supplementation in feed, 2 weeks before and 1 week after intrastriatal malonate 3 μmol): protected against striatal malonate lesions | effect against MPTP induced depletions of homovanillic acid ([7]; 1% in feed, pilot experiment): effective | neuroprotection against MPTP induced dopamine depletions ([7]; 1% in feed, pilot experiment): significant neuroprotection | neuroprotective effect compared with creatine ([7]; 1% in feed, pilot experiment): greater than that seen with creatine alone | protection against DOPAC depletions induced by MPTP ([7]; 1% in feed, pilot experiment, MPTP 15 mg/kg i.p. x5): significantly protected | effects on the dopamine metabolites HVA and DOPAC ([7]; dose response study (creatine 0.25%-3.0%; cyclocreatine 0.25-1.0% of the diet)): neuroprotection effects | neuroprotection against MPTP induced dopamine depletions [7, 12]: significant protection | protection against HVA depletion [7, 12]: not seen | neuroprotection against MPTP induced dopamine depletions ([7]; dose response study, 1.0% of the diet): significant protection | gross adverse effects [8]: without gross adverse effects | accumulation in organs [9]: accumulation of cyclocreatine in different organs in mM concentrations

N=C(N)N(CC(=O)O)CC1CO1 (centres unmarked) [epoxycreatine]
inactivation of creatine kinase (creatine kinase): completely and irreversibly inactivate

NC(=O)c1cccnc1 [nicotinamide]
protection against dopamine depletion [3]: effective in inhibiting moderate dopamine depletion | ATP depletion produced by malonate in vivo [1]: attenuated ATP depletion | protection against lesions in the malonate animal model [1]: dose dependent protection | neuroprotective effect against malonate lesions (striatal lesion volume) [10]: did not reach significance

N-phosphoryl creatine [creatine phosphate]
adverse side effects [11]: no adverse side effects

isoepoxycreatine
inactivation of creatine kinase (creatine kinase): completely and irreversibly inactivate
